One series deals with hERG channel (Homo sapiens (Human), UniProt Q12809). In words: Blocking of hERG channel, whole-cell patch clamp in stably transfected HEK 293 cells. The class given is cell-based. As to conditions: HEK 293 cells.
Series [1] can be described thus: Oral bioavailability, pharmacokinetic study in mice. The class given is in vivo, mouse. The method, then: Drug concentrations in blood or plasma are determined as a function of time in pharmacokinetic studies. Mice were treated with the test compound at defined doses. 10 mg/kg is used for oral administration and 1 mg/kg is taken for intravenous administration. Blood or plasma samples are collected at defined time-points and the drug content is determined by LC-MS/MS. The drug concentration is plotted as a function of time and the non-intravenous (oral) and the intravenous area under the curve (AUC) is calculated using the linear trapezoidal rule. The oral bioavailability is then calculated using dose-normalized AUC with the following formula: F[%]=AUCoral/AUCintravenous*100 Blocking of hERG Channel

A further series relates to PDE4 (U937). The experiment in a line: PDE4 enzyme inhibition, IMAP fluorescence polarization assay. The series is classed as biochemical, human. The method, then:
PDE4 is partially purified from undifferentiated human monocytic cells (U937) according to Thorpy et al. 1992 (J. Pharmacol. Exp. Ther. 263: 1195). Cells are grown in Iscove's modified Dulbecco's medium (GIBCO) with 5% foetal bovine serum (GIBCO) and 100 μg/mL penicillin-streptomycin (GIBCO). Cells are broken by sonication and PDE4 is purified by anion-exchange chromatography on DEAE-Sepharose CL-6B (GE Healthcare). […] In addition, PDE4 preparations are validated by inhibition studies with PDE4-specific and unspecific PDE inhibitors.
PDEs specifically hydrolyze cAMP and/or cGMP and release the product AMP and/or GMP. The potency of PDE inhibition by test compounds is determined with a commercially available in vitro enzymatic assay (IMAP® Fluorescence Polarization assay, Molecular Devices Corp.). Fluorescently labeled cAMP or cGMP is hydrolyzed by PDE preparations and in a second step, binding of labeled product to a large binding partner allows product detection by fluorescence polarization (FP) measurements.
Stock solutions of the test compounds are made in DMSO and diluted in assay buffer (10 mM Tris-HCl, 10 mM MgCl2, 0.1% BSA 0.05% NaN3, pH 7.2) to the desired concentrations. The solutions used in the assay contain the test compound in assay buffer with 2% DMSO. 5 μl of this pre-diluted test compound solution are mixed with 10 μl of substrate (FL-cAMP or FL-cGMP) at concentrations recommended by the manufacturer and with 5 μl of appropriately diluted PDE. 5 μl of reaction buffer with 2% DMSO are used for control reactions. […] After incubation for 90 minutes at room temperature, 60 μl of binding reagent are added as specified by the manufacturer. Binding is allowed to proceed for 30 minutes and fluorescence polarization is measured. Dose dependence of PDE inhibition is measured by assaying dilution series of test compounds. IC50 values are determined from the measured activities by curve fitting.

A further series deals with bacteria. The experiment in a line: Antibacterial activity. The class given is cell-based. The method, then: (§1) All MIC values are determined by broth microdilution according to the guidelines by the Clinical and Laboratory Standards Institute (CLSI, Wayne Pa., USA). Staphylococcus aureus ATCC29213 is grown on Müller-Hinton agar (MHA) (Becton Dickinson) and then in cation-adjusted Müller Hinton broth (CaMHB) (Becton Dickinson) for 24 h at 37° C. Streptococcus pyogenes ATCC19615 and Moraxella catharrhalis QK34 are grown on MHA with 2.5% Laked Horse Blood (Oxoid). Liquid cultures in CaMHB+5% horse serum (Sigma) are incubated for 24 h at 35° C. in a 5% CO2 atmosphere. Haemophilus. influenzae 3168 is grown on MHA+2.5% Fildes extract (Oxoid). Liquid cultures are grown in CaMHB+5% Fildes extract at 35° C. in a 5% CO2 atmosphere. Propionibacteria are grown on Wilkins-Chalgren agar (WCA) (Oxoid) for 72 h under anaerobic conditions. Liquid cultures are grown anaerobically in Wilkins-Chalgren broth (WCB) (Oxoid) for 48 h at 35° C. MIC values are obtained by broth microdilution using WCB (Anaerobe Broth MIC, Difco). Microtitre plates are loaded into 7-L GENbox anaerobic incubation jars (BioMerieux) fitted with anaerobic atmosphere generators (BioMerieux) and a Dry Anaerobic Indicator Strip (BBL). Under these conditions, an O2 concentration <0.1% is achieved by 2.5 h, and a CO2 concentration >15% by 24 h.

The subject of a further series is P. acnes EG7NS. The experiment in a line: MIC determination by broth microdilution (anaerobic). Conditions: Cutibacterium acnes, EG7NS; read-out: MIC (μg/ml) P. acnes EG7NS. The class given is cell-based, Propionibacterium acnes. The protocol:
as §1

The test system of a further series is H. influenzae 3168. In words: MIC determination by broth microdilution. The class given is cell-based. Conditions: Haemophilus influenzae, read-out: MIC (μg/ml) H. influenzae 3168. The method, then: as §1
The subject of the next series is S. pyogenes ATCC19615. In words: MIC determination by broth microdilution. The class given is cell-based. Conditions: Streptococcus pyogenes, read-out: MIC (μg/ml) S. pyogenes ATCC19615. The method, then:
as §1

For the next series, the system named is S. aureus ATCC29213. The experiment in a line: MIC determination by broth microdilution. The class given is cell-based. As to conditions: Staphylococcus aureus, read-out: MIC (μg/ml) S. aureus ATCC29213. The protocol: as §1
Another series concerns M. catarrhalis QK34. The experiment in a line: MIC determination by broth microdilution. Conditions: Moraxella catarrhalis, read-out: MIC (μg/ml) M. catarrhalis QK34. The series is classed as cell-based, Moraxella catharrhalis. The method, then:
as §1

Another series has as its system P. granulosum EG13NS. The experiment in a line: MIC determination by broth microdilution (anaerobic). The class given is cell-based. Conditions: read-out: MIC (μg/ml) P. granulosum EG13NS. The method, then:
as §1

The text below walks through data of US9738676B2, “Selected macrolides with PDE4-inhibiting activity” (Basilea Pharmaceutica AG, priority 2012, dated 2017).

Each structure is given as a SMILES string. Where only a bound is given, the exact number is not on record here.

hERG channel, sequence (Q12809 whole entry): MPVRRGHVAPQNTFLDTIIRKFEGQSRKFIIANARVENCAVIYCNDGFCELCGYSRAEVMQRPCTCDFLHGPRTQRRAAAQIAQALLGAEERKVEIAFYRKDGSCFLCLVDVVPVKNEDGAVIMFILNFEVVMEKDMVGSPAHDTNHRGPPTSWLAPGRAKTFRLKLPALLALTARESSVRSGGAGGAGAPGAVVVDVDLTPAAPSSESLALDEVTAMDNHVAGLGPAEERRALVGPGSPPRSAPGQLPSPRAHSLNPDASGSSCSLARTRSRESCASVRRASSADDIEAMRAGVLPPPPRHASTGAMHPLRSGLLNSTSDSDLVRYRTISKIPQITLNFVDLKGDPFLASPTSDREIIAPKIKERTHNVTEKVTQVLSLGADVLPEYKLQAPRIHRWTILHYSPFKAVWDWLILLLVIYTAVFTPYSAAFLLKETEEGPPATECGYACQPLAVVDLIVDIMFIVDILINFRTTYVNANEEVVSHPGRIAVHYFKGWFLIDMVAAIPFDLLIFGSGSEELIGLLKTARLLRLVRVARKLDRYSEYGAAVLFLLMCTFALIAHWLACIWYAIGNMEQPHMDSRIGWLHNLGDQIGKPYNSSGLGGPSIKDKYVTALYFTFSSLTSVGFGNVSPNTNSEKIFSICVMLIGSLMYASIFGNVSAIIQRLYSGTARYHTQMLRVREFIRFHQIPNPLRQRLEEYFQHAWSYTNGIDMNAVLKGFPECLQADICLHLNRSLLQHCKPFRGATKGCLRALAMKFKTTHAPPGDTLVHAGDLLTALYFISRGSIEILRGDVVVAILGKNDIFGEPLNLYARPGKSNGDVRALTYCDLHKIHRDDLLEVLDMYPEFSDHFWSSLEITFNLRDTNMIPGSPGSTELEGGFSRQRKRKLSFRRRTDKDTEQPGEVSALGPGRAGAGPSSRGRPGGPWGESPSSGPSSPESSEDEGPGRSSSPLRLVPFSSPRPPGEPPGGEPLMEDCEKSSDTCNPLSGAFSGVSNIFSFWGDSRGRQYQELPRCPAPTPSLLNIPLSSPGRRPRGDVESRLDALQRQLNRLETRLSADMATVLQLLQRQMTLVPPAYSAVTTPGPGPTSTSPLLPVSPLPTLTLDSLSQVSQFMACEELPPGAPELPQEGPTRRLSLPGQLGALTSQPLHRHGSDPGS

In the case of `CC[C@H]1OC(=O)[C@H](C)[C@@H](O[C@H]2C[C@@](C)(OC)[C@@H](O)[C@H](C)O2)[C@H](C)[C@@H](O[C@@H]2O[C@H](C)C[C@H](N(C)C(=O)N3CCOCC3)[C@H]2O)[C@](C)(OC)C[C@@H](C)C(=O)[C@H](C)[C@H]2[C@H](SCCOc3cc(C(=O)Nc4c(Cl)cncc4Cl)ccc3OC)C(=O)O[C@@]21C` [Example 15 WO2009/106419], the “Blocking of hERG @ 1 μM (% remaining tail current)” value on hERG channel (1 μM) is reported as 100%. The “Blocking of hERG @ 10 μM (% remaining tail current)” value at hERG channel (10 μM) came to 98.6%. Also, in [1], the “oral bioavailability (in words)” value was “rather low”. Besides, in series [1] (in vivo, mouse, 10 mg/kg oral, 1 mg/kg intravenous, dose-normalized AUC, read-out: Oral bioavail. (mouse F %)), the bioavailability turned out to be 4.6%. Besides, the “PDE4-inhibiting activity (in words)” value in the series on PDE4 (U937) is listed as “excellent”. Moreover, at PDE4 (U937) (PDE4 partially purified from U937 cells), the IC50 amounted to 0.071 µM. For the same compound, the “antibacterial activity (in words)” value in the series with bacteria is recorded as “strongly reduced”. For the same compound, the MIC in the series on P. acnes EG7NS, in the series on H. influenzae 3168, in the series with S. pyogenes ATCC19615, in the series on S. aureus ATCC29213, in the series on M. catarrhalis QK34 and with P. granulosum EG13NS was over 32 µg/mL each time.
